Assay results as given in patent US8435519B2, “Antibodies that bind alpha subunit of sodium potassium ATPase” (priority 2005, dated 2013).

Legend:
[1] = biological target: T1, D-R region of NKA (Rattus norvegicus, UniProt P06685); test: Immunofluorescent staining of rat cardiac myocytes; format: binding; conditions: ouabain 5, 10 and 20 mM
T1 construct: endogenous in cells; host or cells: isolated rat cardiac myocytes, frozen sections
Protocol: With both ouabain and SSA412: FIG. 5E: a group of cells with 5 mM ouabain at a magnification of 400×, FIG. 5F: a single cell with 5 mM ouabain at 1200×, FIG. 5G: cells with 10 mM ouabain, FIG. 5H: cells with 20 mM ouabain.
Isolated rat heart cells were incubated in 1 ml cold lysis buffer containing 150 mM NaCl, 10 mM EDTA, 1% NP-40, 1 mM Na3VO4, and 1× protease inhibitor cocktail as described, with or without antibody. Immunoprecipitates were boiled for 5 min and loaded on a 7% SDS gel, and transferred from the SDS gel to a nitrocellulose membrane. The nitrocellulose membrane was blocked with 5% nonfat milk for 1 hour and incubated with SSA412 or other control antibodies overnight at 4° C. Alkaline phosphatase conjugated secondary antibody (1:2500) was then incubated with the membrane for 1 hour and washed 3 times with TBS in 0.05% Tween-20. Color was developed using a reagent containing a mixture of NBT and BCIP (Promega Corporation, WI). For immunofluorescent staining, rat myocytes were frozen and cut on a cryostat. Sections (8 μm) of each tissue were blocked with 1% bovine serum albumin (BSA) and incubated with SSA412 (1:100) for 60 min in the presence or absence of 5, 10, and 20 mM ouabain. Washed slides were evaluated after incubation with a FITC conjugated goat anti-rabbit antibody (1:75).

[2] = system: α- and β-adrenergic receptors in isolated rat myocytes; test: Effect of α- and β-adrenergic receptor inhibitors on cell contraction; format: cell-based; conditions: 1 μM isoproterenol, inhibitors 7 μM each
Protocol: Cell contractions were measured in the presence or absence of SSA412 (0.5 μM) with or without inhibitors. Black circles: with 1 μM isoproterenol. Open circles: with 1 μM isoproterenol+ both prazosin and propennol (7 μM each). Black triangles: with SSA412 in the presence of both prazosin and propennol (7 μM each). Data are presented as percent of control (n=8 cells for each group).
(§1) Myocytes were placed on an inverted microscope (Zeiss model IM-35), superfused with HEPES-buffered solution at a flow rate of 1.8 ml/min, and electrically stimulated at 0.5 Hz at 23° C. Cell length was monitored from the bright-field image (650 nm to 750 nm red light illumination) by an optical edge-tracking method using a photodiode array (model 1024 SAQ, Reticon) with a 3-ms time resolution. Contraction amplitude was measured as the percentage of shortening of cell length.

[3] = system: isolated rat cardiac myocytes; test: Intracellular Ca2+ transients and cell contraction; format: cell-based; conditions: SSA412 + 0.5 mM peptide blocker
Protocol: Ventricular cardiac myocytes were isolated from adult Sprague-Dawley rats (2-3 months old, weight 225-300 g) using standard enzymatic technique as described previously.^1 Briefly, following anaesthesia (sodium pentobarbital, 100 mg/kg), the heart was quickly removed from the chest and aortic perfused at constant pressure at 37° C. for 3 min with a Ca^2+-free bicarbonate-based buffer containing 120 mM NaCL, 5.4 mM MgSO4, 1.2 mM NaH2PO4, 5.6 mM glucose, 20 mM NaHCO3, and 5 mM taurine, in the presence of O2 (95%)/CO2 (5%). Enzymatic digestion was initiated by adding collagenase (Worthington Type II, 1 mg/ml) to the perfusion solution. Calcium (50 μM) was added to the enzyme solution when the heart became swollen. About 7 min later, the left ventricle was quickly removed, cut into several pieces, and further digested on a shaker (60-70 rpm) for 10 min in the same enzyme solution. […]
as §1, with “length. […]” for “length.”

[4] = biological target: T2, purified ouabain-sensitive dog NKA (Canis lupus familiaris, UniProt P50997); test: NKA catalytic activity (ATPase assay, Kyte's method), purified dog NKA; format: biochemical; conditions: FIG. 7, antibody + peptide blocker
T2 construct: 30 μg of purified dog kidney NKA; from tissue; host or cells: dog kidney
Protocol: A first series of experiments were conducted testing whether antibody SSA412, binding to the D-R region of the alpha 1-subunit, affects NKA activity. NKA activity was determined based on Jack Kyte's method as previously described [17, which is hereby incorporated by reference as if set forth fully herein]. […] FIG. 2A and FIG. 2B show the time course of activation of purified rat (FIG. 2A: 0.125 mg/ml, ouabain-resistant) or dog (FIG. 2B: 0.125 mg/ml, ouabain-sensitive) NKA incubated with SSA412 (0.5 and 1.0 μM) or with 1.0 μM normal rabbit total IgG at 4° C. or at room temperature (FIG. 2C and FIG. 2D). The control is indicated by closed circles, […] SSA412 by open circles, […] SSA412 by closed triangles and […] rabbit IgG by open triangles.
NKA activity was determined based on Jack Kyte's method as previously described under various experimental conditions as indicated in FIG. 2. All NKA activities in different experiments are ouabain-sensitive activity. Purified ouabain-resistant rat NKA and ouabain-sensitive dog NKA were used to verify the data. Enzymes were incubated with or without SSA412 for 60 min at room temperature. The reaction was initiated by adding different concentrations of MgATP in a final volume of 0.25 ml at 37° C. for 30 min and terminated by adding 0.75 ml quench solution and 0.025 ml developer. Color was developed for 30 minutes at room temperature and the concentration of phosphate was then determined at 700 nm using a spectrophotometer. NKA turnover number (kcat) was calculated using the equation kcat=Vmax/Et, where Vmax is the maximal velocity (rate of reaction) and Et represents enzyme concentration.

C[C@@H]1O[C@@H](O[C@H]2C[C@@H](O)[C@]3(CO)[C@H]4[C@H](O)C[C@]5(C)[C@@H](C6=CC(=O)OC6)CC[C@]5(O)[C@@H]4CC[C@]3(O)C2)[C@H](O)[C@H](O)[C@H]1O [Ouabain, ouabain]
competition with SSA412 binding to the D-R region of NKA [1]: does not compete

COc1cc2nc(N3CCN(C(=O)c4ccco4)CC3)nc(N)c2cc1OC [prazosin]
effect of inhibitor on action of the agonist isoproterenol [2]: eliminated

CC(C)NCC(O)COc1cccc2ccccc12 (stereo not shown) [propennol]
effect of inhibitor on action of the agonist isoproterenol [2]: eliminated

DVEDSYGQQWTYEQR (Activation site of the (Na+K)-ATPase)
SSA412-induced increase in calcium and contraction in presence of peptide blocker [3]: blocked

KRQPRNPKTDKLVNE (Activation site of the (Na+K)-ATPase) [PB95]
antibody-induced increase in NKA in presence of respective peptide blocker [4]: blocked

RSATEEEPPNDD (Activation site of the (Na+K)-ATPase) [PB78]
antibody-induced increase in NKA in presence of respective peptide blocker [4]: blocked

VPAISLAYEQAESD (VPASLAYEQAESD; Activation site of the (Na+K)-ATPase) [PB97]
antibody-induced increase in NKA in presence of respective peptide blocker [4]: blocked
